ChEMBL document CHEMBL1138930, “Discovery of novel triazole-based opioid receptor antagonists” (J Med Chem, 2006)

How the values were obtained:
[1] = biological target: Delta-type opioid receptor (Mus musculus) (UniProt P32300); assay: Inhibition of (-)-[9-3H]bremazocine binding to delta opioid receptor at 10 uM
[2] = biological target: Delta-type opioid receptor (Mus musculus) (UniProt P32300); assay: Inhibition of (-)-[9-3H]bremazocine binding to delta opioid receptor expressed in HEK293 cells
[3] = test system: Delta and mu opioid receptors (Mus musculus); assay: Selectivity for delta opioid receptor over mu opioid receptor
[4] = test system: Delta (Mus musculus) and kappa (Rattus norvegicus) opioid receptors; assay: Selectivity for delta opioid receptor over kappa opioid receptor
[5] = biological target: Mu-type opioid receptor (Mus musculus) (UniProt P42866); assay: Inhibition of (-)-[9-3H]bremazocine binding to mu opioid receptor at 10 uM
[6] = biological target: Kappa-type opioid receptor (Rattus norvegicus) (UniProt P34975); assay: Inhibition of (-)-[9-3H]bremazocine binding to kappa opioid receptor at 10 uM
[7] = biological target: Kappa-type opioid receptor (Rattus norvegicus) (UniProt P34975); assay: Inhibition of (-)-[9-3H]bremazocine binding to kappa opioid receptor expressed in HEK293 cells
[8] = biological target: Mu-type opioid receptor (Mus musculus) (UniProt P42866); assay: Inhibition of (-)-[9-3H]bremazocine binding to mu opioid receptor expressed in HEK293 cells

Sequence of Mu-type opioid receptor (Mus musculus) (P42866 whole entry, looked up): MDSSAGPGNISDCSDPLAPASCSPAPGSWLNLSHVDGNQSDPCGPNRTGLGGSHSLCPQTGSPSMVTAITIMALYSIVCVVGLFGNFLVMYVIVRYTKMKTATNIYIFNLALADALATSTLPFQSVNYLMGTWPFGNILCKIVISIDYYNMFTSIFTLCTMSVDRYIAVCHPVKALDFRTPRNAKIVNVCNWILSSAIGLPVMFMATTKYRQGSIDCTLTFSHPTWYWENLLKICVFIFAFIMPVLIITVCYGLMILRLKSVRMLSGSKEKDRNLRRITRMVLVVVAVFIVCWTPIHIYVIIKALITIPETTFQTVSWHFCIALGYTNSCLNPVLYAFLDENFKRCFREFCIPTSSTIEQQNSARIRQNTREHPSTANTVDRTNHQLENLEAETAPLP
Sequence of Delta-type opioid receptor (Mus musculus) (P32300 whole entry, looked up): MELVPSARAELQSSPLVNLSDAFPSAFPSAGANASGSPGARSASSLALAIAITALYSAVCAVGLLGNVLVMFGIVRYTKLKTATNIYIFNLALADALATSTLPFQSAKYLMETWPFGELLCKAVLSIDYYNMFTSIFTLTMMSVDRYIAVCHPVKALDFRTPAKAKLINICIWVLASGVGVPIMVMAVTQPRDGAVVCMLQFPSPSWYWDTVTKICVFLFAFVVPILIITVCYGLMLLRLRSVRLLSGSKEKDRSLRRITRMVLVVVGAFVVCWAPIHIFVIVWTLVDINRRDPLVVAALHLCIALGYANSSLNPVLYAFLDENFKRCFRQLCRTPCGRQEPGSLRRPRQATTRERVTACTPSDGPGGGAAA
Sequence of Kappa-type opioid receptor (Rattus norvegicus) (P34975 whole entry, looked up): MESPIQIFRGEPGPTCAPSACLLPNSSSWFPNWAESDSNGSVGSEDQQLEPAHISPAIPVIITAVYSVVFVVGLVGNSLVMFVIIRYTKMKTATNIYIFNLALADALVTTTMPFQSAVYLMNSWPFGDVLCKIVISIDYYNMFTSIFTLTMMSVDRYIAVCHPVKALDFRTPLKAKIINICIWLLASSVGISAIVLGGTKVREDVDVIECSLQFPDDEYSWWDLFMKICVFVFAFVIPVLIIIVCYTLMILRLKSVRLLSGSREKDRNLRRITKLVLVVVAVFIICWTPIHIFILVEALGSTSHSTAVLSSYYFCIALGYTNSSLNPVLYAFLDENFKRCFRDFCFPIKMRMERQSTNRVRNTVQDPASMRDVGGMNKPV

SMILES	inhibition [1] [%]	Ki [2] [µM]	Selectivity ratio [3]	Selectivity ratio [4]	inhibition [5] [%]	inhibition [6] [%]	Ki [7] [µM]	Ki [8] [µM]
CN(C)Cc1nnc(-c2cccc(C(C)(C)C)c2)n1-c1cccc(O)c1	65	2.6	–	–	–	–	–	–
Oc1cccc(-n2cnnc2-c2cccc(-c3ccccc3)c2)c1	84	–	7.14	> 71.4	84	42	> 10	–
CC(C)(C)c1ccc(-c2nncn2-c2cccc(O)c2)cc1	54	10	–	–	16	16	> 10	> 10
COc1cccc(-n2cnnc2-c2cccc(C(C)(C)C)c2)c1	–	–	–	–	–	5	> 10	–
CN(C)c1nnc(-c2cccc(C(C)(C)C)c2)n1-c1cccc(O)c1	76	1.05	–	–	19	6	> 10	> 10
Oc1cccc(-n2cnnc2-c2ccc(-c3ccccc3)cc2)c1	75	1.5	–	–	60	46	> 10	> 10
CC(C)(C)c1cccc(-c2nncn2-c2cccc(O)c2)c1	91	0.23	3.7	6.52	78	66	1.5	0.85
CN(C)Cc1nnc(-c2ccc(C(C)(C)C)cc2)n1-c1cccc(O)c1	–	–	–	–	–	9	> 10	–
COc1cccc(-n2c(-c3ccc(C(C)(C)C)cc3)nnc2N(C)C)c1	28	> 10	–	–	50	3	> 10	> 10
CN(C)CCc1nnc(-c2ccc(C(C)(C)C)cc2)n1-c1cccc(O)c1	90	0.9	–	–	23	19	> 10	> 10
CN(C)c1nnc(-c2ccc(C(C)(C)C)cc2)n1-c1cccc(O)c1	94	0.05	80	> 200	32	6	> 10	4
COc1cccc(-n2cnnc2-c2ccc(C(C)(C)C)cc2)c1	–	–	–	–	9	8	> 10	> 10
CN(C)c1nnc(-c2ccc(C(C)(C)C)cc2)n1-c1ccc(O)cc1	27	> 10	–	–	8	21	> 10	> 10
Oc1cccc(-n2cnnc2-c2ccc3ccccc3c2)c1	68	2.1	> 4.76	> 4.76	48	27	> 10	> 10
CN1CCN(c2nnc(-c3ccc(C(C)(C)C)cc3)n2-c2cccc(O)c2)CC1	18	> 10	–	–	5	12	> 10	> 10
CN(C)c1nnc(-c2cccc(-c3ccccc3)c2)n1-c1cccc(O)c1	86	0.15	> 66.6	> 66.6	23	8	> 10	> 10
CN(C)c1nnc(-c2ccc3ccccc3c2)n1-c1cccc(O)c1	68	0.48	> 20.8	> 20.8	48	27	> 10	> 10
CN(C)c1nnc(-c2ccc(-c3ccccc3)cc2)n1-c1cccc(O)c1	82	0.13	–	–	15	11	> 10	> 10
